Tests used:
Format in all cases: in vivo
[1] = tested on: Aedes aegypti; assay: whole plant or invertebrate; conditions: 48 h, A. aegypti larvae, incubated 2 days, read-out: mortality in comparison with untreated controls (larval mortality)
Method: For evaluating control of yellow fever mosquito (Aedes aegypti) the test unit consisted of 96-well-microtiter plates containing 200µl of tap water per well and 5-15 freshly hatched A. aegypti larvae.
The active compounds were formulated using a solution containing 75% (v/v) water and 25% (v/v) DMSO. Different concentrations of formulated compounds or mixtures were sprayed onto the insect diet at 2.5µl, using a custom built micro atomizer, at two replications.
After application, microtiter plates were incubated at 28 + 1°C, 80 + 5 % RH for 2 days. Larval mortality was then visually assessed.

[2] = tested on: dichromothrips corbetti; assay: Orchid thrips floral-immersion test; conditions: 72 h, read-out: mortality in comparison with untreated controls
Method: Dichromothrips corbetti adults used for bioassay are obtained from a colony maintained continu-ously under laboratory conditions. For testing purposes, the test compound is diluted in a 1:1 mix-ture of acetone:water (vol:vol), plus Kinetic at a rate of 0.01% v/v.
Thrips potency of each compound is evaluated by using a floral-immersion technique. Each orchid petal is dipped into treatment solution and allowed to dry in Petri dishes. Treated petals are placed into individual re-sealable plastic along with about 20 adult thrips. All test arenas are held under dark condition and a temperature of about 28°C for duration of the assay. The percent mor-tality is recorded 72 hours after treatment.

[3] = tested on: Anthonomus grandis; assay: Boll weevil (Anthonomus grandis) insect diet microtiter plate test; conditions: 120 h, read-out: mortality in comparison with untreated controls (egg and larval mortality)
Method: For evaluating control of boll weevil (Anthonomus grandis) the test unit consisted of 96-well-microtiter plates containing an insect diet and 5-10 A. grandis eggs.
The compounds were formulated using a solution containing 75% v/v water and 25% v/v DMSO. Different concentrations of formulated compounds were sprayed onto the insect diet at 5 µl, using a custom built micro atomizer, at two replications.
After application, microtiter plates were incubated at about 25 + 1°C and about 75 + 5 % relative humidity for 5 days. Egg and larval mortality was then visually assessed.

[4] = tested on: Caenorhabditis elegans; assay: Caenorhabditis elegans liquid diet microtiter plate test; conditions: 96 h, read-out: mortality in comparison with untreated controls (nematode motility (mortality))
Method: For evaluating control of Caenorhabditis elegans through contact or systemic means the test unit consisted of 96-well-microtiter plates containing a liquid diet.
The compounds or mixtures were formulated using a solution containing 75% water and 25% DMSO. Different concentrations of formulated compounds were sprayed into the microtiter plate wells at 5µl per well, using a custom built micro atomizer, at two replications. Mixed instar 60-100 C. elegans were transferred into the micro-titer plate wells. After application, the nematodes were incubated at 18 + 1°C, 70 + 5 % RH for 4 days. Nematode motility (mortality) was then visually assessed.

[5] = tested on: Heliothis virescens; assay: Tobacco budworm (Heliothis virescens) insect diet microtiter plate test; conditions: 120 h, read-out: mortality in comparison with untreated controls (egg and larval mortality)
Method: For evaluating control of tobacco budworm (Heliothis virescens) the test unit consisted of 96-well-microtiter plates containing an insect diet and 15-25 H. virescens eggs.
The compounds were formulated using a solution containing 75% v/v water and 25% v/v DMSO. Different concentrations of formulated compounds were sprayed onto the insect diet at 10 µl, us-ing a custom built micro atomizer, at two replications.
After application, microtiter plates were incubated at about 28 + 1°C and about 80 + 5 % relative humidity for 5 days. Egg and larval mortality was then visually assessed.

[6] = tested on: Megoura viciae; assay: Vetch aphid (Megoura viciae) broad bean leaf disk test; conditions: foliar, 120 h, read-out: mortality in comparison with untreated controls
Method: For evaluating control of vetch aphid (Megoura viciae) through contact or systemic means the test unit consisted of 24-well-microtiter plates containing broad bean leaf disks.
The compounds were formulated using a solution containing 75% v/v water and 25% v/v DMSO. Different concentrations of formulated compounds were sprayed onto the leaf disks at 2.5 µl, us-ing a custom built micro atomizer, at two replications.
After application, the leaf disks were air-dried and 5 - 8 adult aphids placed on the leaf disks in-side the microtiter plate wells. The aphids were then allowed to suck on the treated leaf disks and incubated at about 23 + 1°C and about 50 + 5 % relative humidity for 5 days. Aphid mortality and fecundity was then visually assessed.

[7] = tested on: Myzus persicae; assay: Green peach aphid (Myzus persicae) artificial diet/membrane systemic test; conditions: 72 h, read-out: mortality in comparison with untreated controls
Source text: For evaluating control of green peach aphid (Myzus persicae) through systemic means the test unit consisted of 96-well-microtiter plates containing liquid artificial diet under an artificial membrane.
The compounds were formulated using a solution containing 75% v/v water and 25% v/v DMSO. Different concentrations of formulated compounds were pipetted into the aphid diet, using a cus-tom built pipetter, at two replications.
After application, 5 - 8 adult aphids were placed on the artificial membrane inside the microtiter plate wells. The aphids were then allowed to suck on the treated aphid diet and incubated at about 23 + 1°C and about 50 + 5 % relative humidity for 3 days. Aphid mortality and fecundity was then visually assessed.

[8] = tested on: Nephotettix virescens; assay: Rice green leafhopper (Nephotettix virescens) spray test on rice seedlings; conditions: adults, after 72 hours, read-out: mortality in comparison with untreated controls
Method: Four to five-week old rice seedlings with cut upper leaf portion are cleaned and washed 24 hours before spraying. The active compounds are formulated in 1:1 acetone:water (vol:vol), and 0.01% vol/vol surfactant (Kinetic) is added. Potted rice seedlings are sprayed with 5-6 ml test solution, air dried, covered with Mylar cages and inoculated with 10 adults. Treated rice plants are kept at about 28-29°C and relative humidity of about 50-60%. Percent mortality is recorded after 72 hours.

[9] = tested on: Plutella xylostella; assay: Diamond back moth (Plutella xylostella) cabbage leaf disc dip test; conditions: foliar, 72 h, read-out: mortality in comparison with untreated controls
Method: The active compound is dissolved at the desired concentration in a mixture of 1:1 (vol:vol) distilled water: acetone. Surfactant (Kinetic) is added at a rate of 0.01% (vol/vol). The test solution is pre-pared at the day of use.
Cabbage leaf discs (60mm in diameter) are dipped in test solution and air-dried. Treated leaves are placed in petri dishes lined with moistened filter paper and inoculated with ten 3rd instar larvae. Mortality is recorded 72 hours after treatment. Feeding damage is also recorded using a scale of 0-100%.

[10] = tested on: Tetranychus kanzawai; assay: Red spider mite (Tetranychus kanzawai) spray test on cowpea beans; conditions: topical, 72 h, read-out: mortality in comparison with untreated controls
Method: The active compound is dissolved at the desired concentration in a mixture of 1:1 (vol:vol) distilled water: acetone. Add surfactant (Kinetic) is added at a rate of 0.01% (vol/vol). The test solution is prepared at the day of use.
Potted cowpea beans of 4-5 days of age are cleaned with tap water and sprayed with 1-2 ml of the test solution using air driven DeVilbiss® hand atomizer at 20- 30 psi (≈ 1,38 to 2,07 bar). The treated plants are allowed to air dry and afterwards inoculated with 30 or more mites by clipping a cassava leaf section from rearing population. Treated plants are placed inside a holding room at about 25-26°C and about 65-70% relative humidity. Estimate percent mortality is assessed 72 hours after treatment.

O=C(NCC1OCN(CC2CC2)C1=O)c1ccc(C2=NOC(c3cc(Cl)c(F)c(Cl)c3)(C(F)(F)F)C2)c2c1CCC2 (centres unmarked) [Compound I-3-2]
> 75%: mortality at 2500 ppm [1] | mortality at 300 ppm [2] | mortality at 2500 ppm [3] | mortality at 2500 ppm [4] | mortality at 2500 ppm [5] | mortality at 2500 ppm [6] | mortality at 2500 ppm [7] | mortality at 300 ppm [8] | mortality at 300 ppm [9] | mortality at 300 ppm [10]

O=C(NCC1OCN(CC2CC2)C1=O)c1ccc(C2=NOC(c3cc(Cl)cc(C(F)(F)F)c3)(C(F)(F)F)C2)c2c1CCC2 (centres unmarked) [Compound I-3-4]
> 75%: mortality at 2500 ppm [1] | mortality at 300 ppm [2] | mortality at 2500 ppm [3] | mortality at 2500 ppm [5] | mortality at 2500 ppm [6] | mortality at 2500 ppm [7] | mortality at 300 ppm [9]

O=C(NCC1OCN(CC2CC2)C1=O)c1ccc(C2=NOC(c3cc(Cl)c(F)c(Cl)c3)(C(F)(F)F)C2)cc1Cl (centres unmarked) [Compound I-3-6]
> 75%: mortality at 2500 ppm [1] | mortality at 300 ppm [2] | mortality at 2500 ppm [3] | mortality at 2500 ppm [5] | mortality at 2500 ppm [6] | mortality at 2500 ppm [7] | mortality at 300 ppm [9]

CCN1COC(CNC(=O)c2ccc(C3=NOC(c4cc(Cl)cc(Cl)c4)(C(F)(F)F)C3)cc2Cl)C1=O (centres unmarked) [Compound I-3-8]
> 75%: mortality at 2500 ppm [1] | mortality at 300 ppm [2] | mortality at 2500 ppm [3] | mortality at 2500 ppm [4] | mortality at 2500 ppm [5] | mortality at 2500 ppm [6] | mortality at 2500 ppm [7] | mortality at 300 ppm [9]

O=C(NCC1OCN(CC(F)(F)F)C1=O)c1ccc(C2=NOC(c3cc(Cl)cc(Cl)c3)(C(F)(F)F)C2)cc1Cl (centres unmarked) [Compound I-3-9]
> 75%: mortality at 2500 ppm [1] | mortality at 300 ppm [2] | mortality at 2500 ppm [3] | mortality at 2500 ppm [4] | mortality at 2500 ppm [5] | mortality at 2500 ppm [6] | mortality at 2500 ppm [7] | mortality at 300 ppm [9]

O=C(NCC1OCN(CC2CC2)C1=O)c1ccc(C2=NOC(c3cc(Cl)cc(Cl)c3)(C(F)(F)F)C2)cc1Cl (centres unmarked) [Compound I-3-10]
> 75%: mortality at 2500 ppm [1] | mortality at 300 ppm [2] | mortality at 2500 ppm [3] | mortality at 2500 ppm [4] | mortality at 2500 ppm [5] | mortality at 2500 ppm [7] | mortality at 300 ppm [9]

Cc1cc(C2=NOC(c3cc(Cl)cc(Cl)c3)(C(F)(F)F)C2)ccc1C(=O)NCC1OCN(CC(F)(F)F)C1=O (centres unmarked) [Compound I-3-13]
> 75%: mortality at 2500 ppm [1] | mortality at 300 ppm [2] | mortality at 2500 ppm [3] | mortality at 2500 ppm [4] | mortality at 2500 ppm [5] | mortality at 2500 ppm [6] | mortality at 2500 ppm [7] | mortality at 300 ppm [9] | mortality at 300 ppm [10]

Cc1cc(C2=NOC(c3cc(Cl)cc(Cl)c3)(C(F)(F)F)C2)ccc1C(=O)NCC1OCN(CC2CC2)C1=O (centres unmarked) [Compound I-3-14]
> 75%: mortality at 2500 ppm [1] | mortality at 300 ppm [2] | mortality at 2500 ppm [3] | mortality at 2500 ppm [4] | mortality at 2500 ppm [5] | mortality at 2500 ppm [6] | mortality at 2500 ppm [7] | mortality at 300 ppm [9] | mortality at 300 ppm [10]

CN1C(=O)OC(CNC(=O)c2ccc(C3=NOC(c4cc(Cl)cc(Cl)c4)(C(F)(F)F)C3)cc2Cl)C1=O (centres unmarked) [Compound I-4-1, 2-chloro-4-[5-(3,5-dichlorophenyl)-5-(trifluoromethyl)-4H-isoxazol-3-yl]-N-[(3-methyl-2,4-dioxo-oxazolidin-5-yl)methyl]benzamide]
> 75%: mortality at 300 ppm [2] | mortality at 2500 ppm [3] | mortality at 2500 ppm [4] | mortality at 2500 ppm [5] | mortality at 2500 ppm [6] | mortality at 2500 ppm [7] | mortality at 300 ppm [9]

O=C(NCC1OC(=O)N(CC(F)(F)F)C1=O)c1ccc(C2=NOC(c3cc(Cl)cc(Cl)c3)(C(F)(F)F)C2)cc1Cl (centres unmarked) [Compound I-4-2]
> 75%: mortality at 2500 ppm [1] | mortality at 300 ppm [2] | mortality at 2500 ppm [3] | mortality at 2500 ppm [4] | mortality at 2500 ppm [5] | mortality at 2500 ppm [6] | mortality at 2500 ppm [7] | mortality at 300 ppm [9]

O=C(NCC1OC(=O)N(CC2CC2)C1=O)c1ccc(C2=NOC(c3cc(Cl)cc(Cl)c3)(C(F)(F)F)C2)cc1Cl (centres unmarked) [Compound I-4-3]
> 75%: mortality at 2500 ppm [1] | mortality at 300 ppm [2] | mortality at 2500 ppm [3] | mortality at 2500 ppm [4] | mortality at 2500 ppm [5] | mortality at 2500 ppm [6] | mortality at 2500 ppm [7] | mortality at 300 ppm [9]

Cc1cc(C2=NOC(c3cc(Cl)cc(Cl)c3)(C(F)(F)F)C2)ccc1C(=O)NCC1OC(=O)N(C)C1=O (centres unmarked) [Compound I-4-4]
> 75%: mortality at 2500 ppm [1] | mortality at 300 ppm [2] | mortality at 2500 ppm [3] | mortality at 2500 ppm [4] | mortality at 2500 ppm [5] | mortality at 2500 ppm [6] | mortality at 2500 ppm [7] | mortality at 300 ppm [9] | mortality at 300 ppm [10]

Cc1cc(C2=NOC(c3cc(Cl)cc(Cl)c3)(C(F)(F)F)C2)ccc1C(=O)NCC1OC(=O)N(CC(F)(F)F)C1=O (centres unmarked) [Compound I-4-5]
> 75%: mortality at 2500 ppm [1] | mortality at 300 ppm [2] | mortality at 2500 ppm [3] | mortality at 2500 ppm [4] | mortality at 2500 ppm [5] | mortality at 2500 ppm [6] | mortality at 2500 ppm [7] | mortality at 300 ppm [9]

Cc1cc(C2=NOC(c3cc(Cl)cc(Cl)c3)(C(F)(F)F)C2)ccc1C(=O)NCC1OC(=O)N(CC2CC2)C1=O (centres unmarked) [Compound I-4-6]
> 75%: mortality at 2500 ppm [1] | mortality at 300 ppm [2] | mortality at 2500 ppm [3] | mortality at 2500 ppm [4] | mortality at 2500 ppm [5] | mortality at 2500 ppm [6] | mortality at 2500 ppm [7] | mortality at 300 ppm [9]

From patent EP3696177A1, “HETEROCYCLIC COMPOUNDS FOR THE CONTROL OF INVERTEBRATE PESTS” (BASF SE, priority 2019, dated 2020)
